In PubChem BioAssay AID1353 (Sanford-Burnham Center for Chemical Genomics, 2008) one finds survival data, which are given here for eleven molecules.

This experiment relates to C17.2 differentiated neurons, thapsigargin death, ATPlite, 24 h. The experiment in a line: rescue of C17.2 neurons from thapsigargin, SAR follow-up, cell-based, differentiated mouse neural stem C17.2, ATP luminescence (AID 1353). The conditions noted are these: at 25 µM, stronger effect = higher value.
[1] abbreviates: measured here: survival at thapsigargin 5 uM.
Setting [2] is: measured here: survival at thapsigargin 15 uM.

Activity calls are given as the source filed them.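 How the source made its calls: active means ATP loss reduced by over 30% versus thapsigargin-only wells, at any thapsigargin dose tested; inactive means the rest.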

As to `COc1ccc(C2CC(=O)C3=C(C2)Nc2ccccc2NC3c2cc(C)ccc2C)cc1` (stereo not drawn), the survival was 2% (inactive). Also, under setting [1], the survival was 69%. Moreover, the survival under setting [2] stood at 0%.

Take `CSc1ccc(C2Nc3ccccc3NC3=C2C(=O)CC(c2ccccc2)C3)cc1` (stereo not drawn): the survival was 2% (inactive). For the same molecule, under setting [1], the survival was found to be 86%. The survival under setting [2] came out at 0%.

Take `CCCOc1ccc(C2Nc3ccccc3NC3=C2C(=O)CC(c2ccc(OC)c(OC)c2)C3)cc1` (stereo not drawn): the survival is 20% (inactive). Further, under setting [1], the survival is 62%. Also, under setting [2], the survival was 1%.

`CCOc1cc(C2Nc3ccccc3NC3=C2C(=O)CC(c2ccc(OC)cc2)C3)cc(Cl)c1O` (stereo not drawn): the survival was 1% (inactive). For the same molecule, under setting [1], the survival is 79%. Moreover, under setting [2], the survival came out at 0%.

Regarding `COc1ccc(C2CC(=O)C3=C(C2)Nc2ccccc2NC3c2ccccc2C(F)(F)F)cc1OC` (stereo not drawn), the survival is 12% (inactive). The survival under setting [1] stood at 55%. The molecule also registered a survival under setting [2] of 1%.

Regarding `CCOc1cccc(C2Nc3ccccc3NC3=C2C(=O)CC(c2ccc(OC)cc2)C3)c1` (stereo not drawn), the survival is 1% (inactive). The survival under setting [1] stood at 83%. For the same molecule, under setting [2], the survival came to 0%.

Turning to `CC1(C)CC(=O)C2=C(C1)Nc1ccccc1NC2c1ccc(-c2ccccc2)cc1` (stereo not drawn), the survival is 1% (inactive). Under setting [1], this molecule displayed a survival of 45%. In addition, the survival under setting [2] came out at 0%.

On to `O=C1CC(c2ccccc2)CC2=C1C(c1c(F)cccc1Cl)Nc1ccccc1N2` (stereo not drawn), for which the survival was 10% (inactive). The same molecule registered a survival under setting [1] of 87%. Under setting [2], this molecule yielded a survival of 1%.

As to `COc1ccc(C2CC(=O)C3=C(C2)Nc2ccccc2NC3c2cccc(Br)c2)cc1OC` (stereo not drawn), the survival is 7% (inactive). For the same molecule, the survival under setting [1] worked out at 67%. The same molecule came in with a survival under setting [2] of 0%.

Turning to `COc1ccc(C2CC(=O)C3=C(C2)Nc2ccccc2NC3c2cccc(C(F)(F)F)c2)cc1OC` (stereo not drawn), the survival is 5% (inactive). Under setting [1], this molecule came in with a survival of 59%. The molecule also gave a survival under setting [2] of 0%.

Take `COc1ccc(C2CC(=O)C3=C(C2)Nc2ccccc2NC3c2cccc(Oc3ccccc3)c2)cc1OC` (stereo not drawn): the survival is 50%. The same molecule showed a survival under setting [1] of 68%. Further, the survival under setting [2] came to 1%.
